pIC50: −log10 of the molar value. The source made the active and inactive calls.
Experiments:
[1] = molecular target: T1, Kappa-type opioid receptor (Homo sapiens, UniProt P41145); format: functional
[2] = molecular target: T1, Kappa-type opioid receptor; format: functional; remark: listed apart in the source
[3] = molecular target: T2, Mannose-6-phosphate isomerase (Homo sapiens, UniProt P34949); assay: human PMI inhibitors, high substrate, primary screen, biochemical, fluorescence intensity, high mannose 6-phosphate (AID 1220)
T2 sequence (P34949 whole entry): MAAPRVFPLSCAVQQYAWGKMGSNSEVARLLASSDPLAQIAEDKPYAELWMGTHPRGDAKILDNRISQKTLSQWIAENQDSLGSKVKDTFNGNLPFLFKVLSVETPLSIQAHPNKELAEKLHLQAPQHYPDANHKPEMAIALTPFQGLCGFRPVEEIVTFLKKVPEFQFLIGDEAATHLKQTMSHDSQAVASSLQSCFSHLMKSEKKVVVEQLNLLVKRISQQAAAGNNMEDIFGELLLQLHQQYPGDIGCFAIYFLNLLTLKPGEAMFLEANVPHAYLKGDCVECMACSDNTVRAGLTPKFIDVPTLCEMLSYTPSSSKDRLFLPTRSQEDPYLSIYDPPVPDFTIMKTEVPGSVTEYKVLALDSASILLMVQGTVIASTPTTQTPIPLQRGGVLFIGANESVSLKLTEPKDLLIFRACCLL

[4] = molecular target: Nonstructural protein 1 (Influenza A virus, UniProt Q194T2); format: functional, Influenza A virus (A/California/07/2009(H1N1))
[5] = HepG2 cell cytotoxicity, dose response, cytotoxicity control for Shn3 inhibitor project, CellTiter-Glo, cherry-picked (AID 624134); format: functional, cell-based
[6] = molecular target: Paired box protein Pax-8 (Homo sapiens, UniProt Q06710); assay: inhibitors of PAX8-driven TPO luciferase reporter, dose response, RMG-I cells, cherry-pick (AID 687027); format: functional, cell-based;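 note: luciferase reporter driven by Pax8 target thyroperoxidase promoter measured by SteadyGlo luminescence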
Sequence of Paired box protein Pax-8 (Q06710 whole entry, the tested form may be a part): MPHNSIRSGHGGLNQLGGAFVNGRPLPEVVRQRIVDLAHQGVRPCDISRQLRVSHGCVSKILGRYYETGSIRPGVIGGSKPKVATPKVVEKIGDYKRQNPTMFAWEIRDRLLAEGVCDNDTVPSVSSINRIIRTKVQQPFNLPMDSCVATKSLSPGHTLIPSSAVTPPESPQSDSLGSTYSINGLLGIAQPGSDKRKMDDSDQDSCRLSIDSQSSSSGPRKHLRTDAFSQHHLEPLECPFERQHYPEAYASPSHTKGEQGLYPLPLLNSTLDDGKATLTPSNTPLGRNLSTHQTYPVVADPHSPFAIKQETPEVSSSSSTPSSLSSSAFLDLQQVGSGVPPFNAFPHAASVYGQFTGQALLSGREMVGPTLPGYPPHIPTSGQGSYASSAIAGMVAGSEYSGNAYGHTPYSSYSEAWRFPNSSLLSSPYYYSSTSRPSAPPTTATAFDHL

[7] = inhibitors of clade B AD8 Env fusion, dose response, cell-based, cherry-pick (AID 652062); format: functional;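 note: luciferase signal from cell-cell fusion driven by HIV-1 clade B AD8 Env; potency is for inhibitors of fusion seen as a drop in luminescence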
[8] = molecular target: T3, Sphingosine 1-phosphate receptor 4 (Homo sapiens, UniProt O95977); assay: Fluorescence dose response cell-based high throughput screening assay for antagonists of the Sphingosine 1-Phosphate Receptor 4 (S1P4). [Related pubchem assays: 1524 (Confirmation in triplicates.), 1510 (Primary screen.)]; format: functional
T3 sequence (O95977 whole entry): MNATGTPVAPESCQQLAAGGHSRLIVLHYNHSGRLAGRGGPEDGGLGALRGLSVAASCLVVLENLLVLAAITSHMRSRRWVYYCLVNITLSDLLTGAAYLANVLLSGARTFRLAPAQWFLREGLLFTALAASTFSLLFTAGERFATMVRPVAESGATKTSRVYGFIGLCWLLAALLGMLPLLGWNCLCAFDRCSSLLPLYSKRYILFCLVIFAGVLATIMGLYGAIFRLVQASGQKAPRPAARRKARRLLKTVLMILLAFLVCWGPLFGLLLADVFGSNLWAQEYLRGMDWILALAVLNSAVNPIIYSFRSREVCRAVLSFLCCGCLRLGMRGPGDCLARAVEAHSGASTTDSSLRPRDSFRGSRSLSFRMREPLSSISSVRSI

[9] = HepG2 cell cytotoxicity, dose response, cytotoxicity control for non-replicating M. tuberculosis project (AID 489018); format: functional; conditions: Mycobacterium tuberculosis
[10] = cells; format: functional
[11] = molecular target: Female germline-specific tumor suppressor gld-1 (Caenorhabditis elegans, UniProt Q17339); assay: inhibitors of GLD-1 binding to TGE RNA, dose response, biochemical, fluorescence polarization, C. elegans (AID 2802);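 note: fluorescence polarization of labeled TGE RNA bound by purified gld-1 protein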
[12] = molecular target: T4, RNA-binding protein pos-1 (Caenorhabditis elegans, UniProt G5EF15); assay: inhibitors of POS-1/mex-3 RNA binding, dose response, biochemical, fluorescence polarization (AID 1964);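 note: purified POS-1 fused to maltose binding protein made in E. coli; potency of compounds blocking POS-1 binding to fluorescent RNA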
T4 sequence (G5EF15 whole entry): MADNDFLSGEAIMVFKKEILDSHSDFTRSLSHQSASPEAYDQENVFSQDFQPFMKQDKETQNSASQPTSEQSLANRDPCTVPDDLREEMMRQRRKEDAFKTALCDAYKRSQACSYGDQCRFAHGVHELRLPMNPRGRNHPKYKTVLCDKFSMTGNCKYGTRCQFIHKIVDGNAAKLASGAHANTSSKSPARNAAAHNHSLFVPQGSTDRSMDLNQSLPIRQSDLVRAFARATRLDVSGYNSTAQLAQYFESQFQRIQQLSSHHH

[13] = system: Streptococcus sp. 'group A'; assay: growth inhibition of control SK(-) GAS strain, dose response, counter-screen for streptokinase expression inhibitor project, luminescence, kanamycin, BacTiterGlo, confirmation (AID 1900); format: functional, organism-based
[14] = molecular target: T5, Bcl-2-related protein A1 (Mus musculus, UniProt Q07440); assay: Bfl-1 inhibitors blocking BH3 peptide binding, confirmation, biochemical, TR-FRET, mouse Bfl-1 (AID 621);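 note: TR-FRET binding of GST-Bfl-1 to FITC-labelled Bid peptide via terbium antibody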
T5 sequence (Q07440 whole entry): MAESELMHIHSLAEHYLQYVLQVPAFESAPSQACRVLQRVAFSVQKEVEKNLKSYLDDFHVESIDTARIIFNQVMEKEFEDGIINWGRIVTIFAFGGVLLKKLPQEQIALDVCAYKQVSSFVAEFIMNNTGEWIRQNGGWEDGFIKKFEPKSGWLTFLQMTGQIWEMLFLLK

[15] = molecular target: Casein kinase I isoform delta (Homo sapiens, UniProt P48730); format: functional;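 note: measured as one member (CSNK1D) of a kinome panel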
Sequence of Casein kinase I isoform delta (P48730 whole entry, canonical isoform): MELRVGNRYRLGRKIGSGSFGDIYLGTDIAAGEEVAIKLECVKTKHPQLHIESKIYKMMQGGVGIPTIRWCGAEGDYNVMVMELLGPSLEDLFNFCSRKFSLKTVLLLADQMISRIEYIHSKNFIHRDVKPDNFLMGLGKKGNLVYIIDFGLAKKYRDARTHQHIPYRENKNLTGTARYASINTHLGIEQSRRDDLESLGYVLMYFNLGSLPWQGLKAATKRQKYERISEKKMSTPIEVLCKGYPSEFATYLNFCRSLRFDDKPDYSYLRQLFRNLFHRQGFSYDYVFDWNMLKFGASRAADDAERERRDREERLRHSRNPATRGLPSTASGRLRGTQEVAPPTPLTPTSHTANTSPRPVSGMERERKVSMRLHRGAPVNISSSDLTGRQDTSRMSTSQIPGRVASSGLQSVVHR

[16] = molecular target: ALK tyrosine kinase receptor (Homo sapiens, UniProt Q9UM73); format: functional;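 note: ALK tested as one member of a kinase panel screen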
Sequence of ALK tyrosine kinase receptor (Q9UM73 whole entry): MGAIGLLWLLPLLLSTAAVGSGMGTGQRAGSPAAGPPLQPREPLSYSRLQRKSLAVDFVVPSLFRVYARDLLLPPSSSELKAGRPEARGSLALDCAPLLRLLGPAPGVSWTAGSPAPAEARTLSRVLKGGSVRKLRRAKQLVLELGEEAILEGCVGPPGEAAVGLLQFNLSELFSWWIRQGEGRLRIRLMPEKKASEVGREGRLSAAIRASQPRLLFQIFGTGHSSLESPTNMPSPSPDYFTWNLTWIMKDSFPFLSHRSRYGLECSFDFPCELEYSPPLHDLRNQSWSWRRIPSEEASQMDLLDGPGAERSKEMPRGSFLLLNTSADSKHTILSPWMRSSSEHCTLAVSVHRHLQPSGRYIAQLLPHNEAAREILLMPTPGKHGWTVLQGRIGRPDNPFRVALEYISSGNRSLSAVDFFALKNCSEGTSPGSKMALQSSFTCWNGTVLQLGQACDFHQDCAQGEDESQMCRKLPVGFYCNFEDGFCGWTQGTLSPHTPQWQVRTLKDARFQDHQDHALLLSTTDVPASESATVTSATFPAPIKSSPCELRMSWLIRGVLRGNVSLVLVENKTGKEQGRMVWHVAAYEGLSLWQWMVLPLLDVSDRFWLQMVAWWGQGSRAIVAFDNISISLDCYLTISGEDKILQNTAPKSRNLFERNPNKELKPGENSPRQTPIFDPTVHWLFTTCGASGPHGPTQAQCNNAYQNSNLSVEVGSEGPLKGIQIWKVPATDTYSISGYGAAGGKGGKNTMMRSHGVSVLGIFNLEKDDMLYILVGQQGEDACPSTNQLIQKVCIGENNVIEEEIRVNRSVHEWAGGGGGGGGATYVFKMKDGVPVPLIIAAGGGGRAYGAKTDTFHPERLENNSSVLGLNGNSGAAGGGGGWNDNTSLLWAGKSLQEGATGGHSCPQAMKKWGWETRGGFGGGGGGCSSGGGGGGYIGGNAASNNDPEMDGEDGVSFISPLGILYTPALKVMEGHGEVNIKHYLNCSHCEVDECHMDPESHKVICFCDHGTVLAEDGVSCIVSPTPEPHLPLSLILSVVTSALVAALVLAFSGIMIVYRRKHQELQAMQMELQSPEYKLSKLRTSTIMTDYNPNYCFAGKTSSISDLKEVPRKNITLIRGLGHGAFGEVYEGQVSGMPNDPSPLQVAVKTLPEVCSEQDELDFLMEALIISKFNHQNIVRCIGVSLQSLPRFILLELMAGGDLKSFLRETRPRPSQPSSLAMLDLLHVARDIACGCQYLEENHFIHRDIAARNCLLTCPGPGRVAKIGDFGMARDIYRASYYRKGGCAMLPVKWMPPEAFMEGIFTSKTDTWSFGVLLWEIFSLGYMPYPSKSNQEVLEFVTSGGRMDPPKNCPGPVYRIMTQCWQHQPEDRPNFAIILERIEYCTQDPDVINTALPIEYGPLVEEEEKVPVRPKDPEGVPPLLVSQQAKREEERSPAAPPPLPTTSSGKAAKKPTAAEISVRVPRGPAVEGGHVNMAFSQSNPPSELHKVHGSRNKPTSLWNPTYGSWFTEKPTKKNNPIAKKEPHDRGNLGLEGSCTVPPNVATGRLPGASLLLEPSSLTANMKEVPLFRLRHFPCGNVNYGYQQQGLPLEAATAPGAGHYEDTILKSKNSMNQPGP

[17] = molecular target: Tyrosine-protein kinase SYK (Homo sapiens, UniProt P43405); format: functional
[18] = molecular target: Mitogen-activated protein kinase 8 (Homo sapiens, UniProt P45983); format: functional;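 note: value comes from one member of a kinome-wide kinase profiling panel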
[19] = molecular target: Serine/threonine-protein kinase N2 (Homo sapiens, UniProt Q16513); format: functional
Sequence of Serine/threonine-protein kinase N2 (Q16513 whole entry): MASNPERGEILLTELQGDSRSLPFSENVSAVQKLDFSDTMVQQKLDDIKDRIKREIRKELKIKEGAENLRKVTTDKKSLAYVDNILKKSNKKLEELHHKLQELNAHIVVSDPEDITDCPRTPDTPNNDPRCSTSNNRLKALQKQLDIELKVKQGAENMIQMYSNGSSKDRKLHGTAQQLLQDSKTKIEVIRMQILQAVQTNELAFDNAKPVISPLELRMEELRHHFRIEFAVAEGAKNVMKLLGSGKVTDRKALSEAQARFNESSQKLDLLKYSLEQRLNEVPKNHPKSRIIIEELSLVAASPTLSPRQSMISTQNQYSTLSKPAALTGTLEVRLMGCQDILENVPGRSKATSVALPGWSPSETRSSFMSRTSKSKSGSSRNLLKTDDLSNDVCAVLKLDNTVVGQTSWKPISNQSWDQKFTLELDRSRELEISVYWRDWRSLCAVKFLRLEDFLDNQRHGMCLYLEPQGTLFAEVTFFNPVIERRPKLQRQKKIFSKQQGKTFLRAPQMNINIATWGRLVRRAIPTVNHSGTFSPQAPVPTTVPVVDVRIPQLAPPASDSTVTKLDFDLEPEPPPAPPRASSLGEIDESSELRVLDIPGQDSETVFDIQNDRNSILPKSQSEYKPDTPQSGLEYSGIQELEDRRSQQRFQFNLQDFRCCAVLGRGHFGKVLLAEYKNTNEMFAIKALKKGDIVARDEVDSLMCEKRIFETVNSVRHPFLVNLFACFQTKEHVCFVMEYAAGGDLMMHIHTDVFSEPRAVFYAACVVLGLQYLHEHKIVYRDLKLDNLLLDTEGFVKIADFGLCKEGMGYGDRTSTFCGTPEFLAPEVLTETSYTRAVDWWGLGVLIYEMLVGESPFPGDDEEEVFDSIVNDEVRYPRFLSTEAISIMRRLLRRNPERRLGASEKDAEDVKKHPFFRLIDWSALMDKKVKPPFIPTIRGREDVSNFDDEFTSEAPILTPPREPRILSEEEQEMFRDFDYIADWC

[20] = molecular target: Activated CDC42 kinase 1 (Homo sapiens, UniProt Q07912); assay: Navigating the Kinome. Panel member name: ACK1; format: functional
[21] = molecular target: G protein-coupled receptor kinase 5 (Homo sapiens, UniProt P34947); assay: Navigating the Kinome. Panel member name: GPRK5; format: functional
[22] = molecular target: Mitogen-activated protein kinase 1 (Homo sapiens, UniProt P28482); format: functional
Sequence of Mitogen-activated protein kinase 1 (P28482 whole entry): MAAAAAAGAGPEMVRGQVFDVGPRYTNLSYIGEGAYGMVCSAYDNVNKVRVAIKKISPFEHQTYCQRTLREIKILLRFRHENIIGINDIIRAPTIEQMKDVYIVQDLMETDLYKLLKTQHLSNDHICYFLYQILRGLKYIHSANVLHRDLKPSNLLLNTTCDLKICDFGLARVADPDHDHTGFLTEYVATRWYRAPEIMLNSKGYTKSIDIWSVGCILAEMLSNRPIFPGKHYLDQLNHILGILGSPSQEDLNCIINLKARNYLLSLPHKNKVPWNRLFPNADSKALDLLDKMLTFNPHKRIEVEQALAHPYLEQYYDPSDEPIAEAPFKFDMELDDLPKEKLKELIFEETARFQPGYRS

[23] = molecular target: Aurora kinase B (Homo sapiens, UniProt Q96GD4); format: functional
Sequence of Aurora kinase B (Q96GD4 whole entry): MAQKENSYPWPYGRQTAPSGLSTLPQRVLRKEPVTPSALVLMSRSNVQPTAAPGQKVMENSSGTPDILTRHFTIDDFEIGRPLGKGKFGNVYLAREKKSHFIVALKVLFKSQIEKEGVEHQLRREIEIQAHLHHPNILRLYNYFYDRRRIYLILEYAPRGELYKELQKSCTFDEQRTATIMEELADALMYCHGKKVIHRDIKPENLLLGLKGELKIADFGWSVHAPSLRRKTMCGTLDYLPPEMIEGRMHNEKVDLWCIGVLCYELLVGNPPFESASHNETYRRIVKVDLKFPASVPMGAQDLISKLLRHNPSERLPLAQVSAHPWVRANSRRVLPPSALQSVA

[24] = molecular target: Mitogen-activated protein kinase 10 (Homo sapiens, UniProt P53779); assay: Navigating the Kinome. Panel member name: MAPK10; format: functional
Sequence of Mitogen-activated protein kinase 10 (P53779 whole entry): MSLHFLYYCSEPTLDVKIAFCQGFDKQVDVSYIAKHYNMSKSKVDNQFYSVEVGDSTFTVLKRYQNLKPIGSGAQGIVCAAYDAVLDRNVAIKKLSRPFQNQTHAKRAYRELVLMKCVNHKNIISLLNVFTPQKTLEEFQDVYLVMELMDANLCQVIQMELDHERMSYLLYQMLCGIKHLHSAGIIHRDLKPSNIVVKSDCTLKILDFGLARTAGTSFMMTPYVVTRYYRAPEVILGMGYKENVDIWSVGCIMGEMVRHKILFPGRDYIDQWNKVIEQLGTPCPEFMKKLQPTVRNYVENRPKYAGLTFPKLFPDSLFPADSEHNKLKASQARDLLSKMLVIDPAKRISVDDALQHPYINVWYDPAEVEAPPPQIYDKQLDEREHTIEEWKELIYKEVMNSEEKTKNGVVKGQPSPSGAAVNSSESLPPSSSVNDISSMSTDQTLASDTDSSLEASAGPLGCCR

T1 sequence (P41145 whole entry): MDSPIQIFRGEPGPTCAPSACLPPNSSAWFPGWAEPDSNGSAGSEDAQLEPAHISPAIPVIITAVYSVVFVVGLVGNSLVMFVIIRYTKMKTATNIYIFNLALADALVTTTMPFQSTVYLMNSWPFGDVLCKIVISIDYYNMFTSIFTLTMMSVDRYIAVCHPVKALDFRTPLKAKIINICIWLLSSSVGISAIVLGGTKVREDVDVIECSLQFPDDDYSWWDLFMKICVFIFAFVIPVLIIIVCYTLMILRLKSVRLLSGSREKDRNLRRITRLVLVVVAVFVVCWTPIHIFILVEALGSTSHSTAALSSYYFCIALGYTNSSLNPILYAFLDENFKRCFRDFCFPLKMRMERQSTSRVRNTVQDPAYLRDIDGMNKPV

## Cc1c(/N=C2\C=CC(=O)c3ccccc32)c(=O)n(-c2ccccc2)n1C
[1]
  IC50: 12.1 µM (active)
[2]
  pIC50: < 4.49
[3]
  IC50: 46.4 µM (active)
[4]
  IC50: 28.7 µM (active)

## CCOC(=O)c1c2c(n(Cc3ccccc3)c1C)C(=O)C(=O)c1ccccc1-2
[5]
  AC50: 6.74 µM (active)
[6]
  AC50: 1.98 µM (active)
[7]
  AC50: 10.6 µM (active)

## COC(=O)CCS(=O)(=O)c1nc(-c2ccccc2)cc(C(F)(F)F)n1
[8]
  IC50: 1.34 µM (active)
[9]
  CC50: 19.4 µM (active)
[10]
  IC50: 4.78 µM (active)

## O=C(O)c1ccc2c3c(ncnc13)-c1ccccc1C2=O
[11]
  IC50: 3.51 µM (active)
[12]
  EC50: 34.8 µM (active)
[13]
  EC50: 6.43 µM (active)
[14]
  IC50: > 100 µM (not active)

## COc1cc2c(cc1F)C(c1ccccc1Cl)=Nc1c(n[nH]c1C)N2 [RG-1530]
[15]
  Ki: > 7.94 µM (inactive)

## Cc1ccc2nccc(NC(=O)Nc3cccc(C(F)(F)F)n3)c2c1
[16]
  Ki: > 3.98 µM (inactive)
[17]
  Ki: > 1.58 µM (inactive)
[18]
  Ki: > 3.16 µM (inactive)
[19]
  Ki: > 7.94 µM (inactive)
[20]
  Ki: > 3.98 µM (inactive)
[21]
  Ki: > 3.98 µM (inactive)
[22]
  Ki: > 7.94 µM (inactive)
[23]
  Ki: 0.251 µM (active)
[24]
  Ki: > 3.16 µM (inactive)

Source: ChEMBL document CHEMBL1201862, “PubChem BioAssay data set” (2004)
